# Structures can show the parent of a compound that is named as a salt. Where two headings read alike, the source gives them in different places.
# Legend:
# [1] = system: C. difficile clinical isolates; experiment: MIC against a panel of 20 C. difficile clinical isolates (broth microdilution); assay type: cell-based, Clostridioides difficile; settings: for MIC50: concentration that inhibited 50% of the 20 C. difficile clinical isolates; for MIC: read-out: minimum inhibitory concentration (MIC); for MIC90: concentration that inhibited 90% of the 20 C. difficile clinical isolates
# B. fragilis = experiment: MIC against human gut microbiota; assay type: cell-based, Bacteroides fragilis; settings: anaerobic; for MIC: Bacteroides fragilis, read-out: minimum inhibitory concentration (MIC)
# B. dorei = experiment: MIC against human gut microbiota; assay type: cell-based, Bacteroides dorei; settings: B. dorei HM- 719, BHIS broth, anaerobic
# Bif. breve = experiment: MIC against human gut microbiota; assay type: cell-based, Bifidobacterium breve; settings: Bif. breve ATCC 15700, BHIS broth, anaerobic
# Bif. angulatum = experiment: MIC against human gut microbiota; assay type: cell-based, Bifidobacterium angulatum; settings: Bif. angulatum HM- 1189, BHIS broth, anaerobic
# Bif. adolescentis = experiment: MIC against human gut microbiota; assay type: cell-based, Bifidobacterium adolescentis; settings: Bif. adolescentis HM- 633, BHIS broth, anaerobic
# Bif. longum = experiment: MIC against human gut microbiota; assay type: cell-based, Bifidobacterium longum; settings: anaerobic; for MIC: Bifidobacterium longum, read-out: minimum inhibitory concentration (MIC)
# E. faecium = experiment: MIC against human gut microbiota; assay type: cell-based, Enterococcus faecium; settings: E. faecium HM-202, TSB, aerobic
# E. fecalis = experiment: MIC against human gut microbiota; assay type: cell-based, Enterococcus faecalis; settings: E. fecalis HM-970, TSB, aerobic
# L. casei = experiment: MIC against human gut microbiota; assay type: cell-based; settings: L. casei ATCC 334, MRS broth, 5% CO2
# L. brevis = experiment: MIC against human gut microbiota; assay type: cell-based, Lactobacillus brevis; settings: L. brevis ATCC-14864, MRS broth, 5% CO2
# L. rhamanosus = experiment: MIC against human gut microbiota; assay type: cell-based, Lactobacillus rhamnoosus; settings: L. rhamanosus ATCC-53103, MRS broth, 5% CO2
# enterococcal species = experiment: MIC against human gut microbiota, summary in text; assay type: cell-based; settings: summary over the Enterococcus strains of Table 4
# [2] = system: vancomycin-resistant enterococci (VRE); parameters: method as in PMID 26765953; settings: cited from earlier work
# MRSA = system: MRSA; parameters: method as in PMID 26765953; settings: cited from earlier work
# A. baumannii = system: A. baumannii; parameters: method as in PMID 31105656; settings: cited from earlier work
# [3] = system: Acinetobacter calcoaceticus; parameters: method as in PMID 31105656; settings: cited from earlier work
# [4] = system: C. difficile ATCC BAA-1870; experiment: MIC of active hits by broth microdilution; settings: C. difficile ATCC BAA-1870, 48 h anaerobic
# mycobacteria = system: mycobacteria; parameters: method as in PMID 33916775; settings: cited from earlier work
# [5] = B. fragilis HM- 709, BHIS broth
# [6] = B. fragilis HM- 718, BHIS broth
# [7] = Bif. longum HM- 845, BHIS broth
# [8] = Bif. longum HM- 846, BHIS broth
# [9] = Bif. longum HM- 847, BHIS broth
# [10] = Bif. longum HM- 848, BHIS broth
molecule,measurement,setting,value
N=C(N/N=C/c1ccc(Cl)cc1)N/N=C/c1ccc(Cl)cc1 [Robenidine hydrochloride],MIC50,"[1]; Clostridioides difficile, 48 h, read-out: MIC50",1 µg/mL
same,MIC,"[1]; Clostridioides difficile, ATCC630, C. difficile ATCC 630",1 µg/mL
same,MIC,"[1]; Clostridioides difficile, ATCC43255, C. difficile ATCC 43255",1 µg/mL
same,MIC,"[1]; Clostridioides difficile, ATCCBAA1870, C. difficile ATCC BAA-1870 (Ribotype-027), purchased compounds, panel test",2 µg/mL
same,MIC,"[1]; Clostridioides difficile, C. difficile CD-1 (Ribotype-027)",1 µg/mL
same,MIC,"[1]; Clostridioides difficile, C. difficile CD-6 (Ribotype-027)",1 µg/mL
same,MIC,"[1]; Clostridioides difficile, C. difficile CD-10(Ribotype-027)",1 µg/mL
same,MIC,"[1]; Clostridioides difficile, C. difficile CD-12",1 µg/mL
same,MIC,"[1]; Clostridioides difficile, C. difficile CD-13",2 µg/mL
same,MIC,"[1]; Clostridioides difficile, C. difficile CD-15",2 µg/mL
same,MIC,"[1]; Clostridioides difficile, C. difficile CD-22",2 µg/mL
same,MIC,"[1]; Clostridioides difficile, C. difficile CD-23",1 µg/mL
same,MIC,"[1]; Clostridioides difficile, C. difficile CD-24",1 µg/mL
same,MIC,"[1]; Clostridioides difficile, C. difficile CD-26 (Ribotype-027)",1 µg/mL
same,MIC,"[1]; Clostridioides difficile, C. difficile CD-28",1 µg/mL
same,MIC,"[1]; Clostridioides difficile, C. difficile CD-29 (Ribotype-027)",1 µg/mL
same,MIC,"[1]; Clostridioides difficile, C. difficile CD-30",2 µg/mL
same,MIC,"[1]; Clostridioides difficile, C. difficile NR-49302",1 µg/mL
same,MIC,"[1]; Clostridioides difficile, C. difficile NR-49304",1 µg/mL
same,MIC,"[1]; Clostridioides difficile, C. difficile NR-49308",1 µg/mL
same,MIC,"[1]; Clostridioides difficile, C. difficile NR-49319",1 µg/mL
same,MIC50,"[1]; Clostridioides difficile, read-out: MIC50",1 µg/mL
same,MIC90,"[1]; Clostridioides difficile, read-out: MIC90",2 µg/mL
same,MIC,B. fragilis; [5],≤ 2 µg/mL
same,MIC,B. fragilis; [6],≤ 2 µg/mL
same,MIC,"B. dorei; Phocaeicola dorei, read-out: minimum inhibitory concentration (MIC)",≤ 2 µg/mL
same,MIC,"Bif. breve; Bifidobacterium breve, ATCC15700, read-out: minimum inhibitory concentration (MIC)",≤ 2 µg/mL
same,MIC,"Bif. angulatum; Bifidobacterium angulatum, read-out: minimum inhibitory concentration (MIC)",≤ 2 µg/mL
same,MIC,"Bif. adolescentis; Bifidobacterium adolescentis, read-out: minimum inhibitory concentration (MIC)",≤ 2 µg/mL
same,MIC,Bif. longum; [7],≤ 2 µg/mL
same,MIC,Bif. longum; [8],≤ 2 µg/mL
same,MIC,Bif. longum; [9],≤ 2 µg/mL
same,MIC,Bif. longum; [10],≤ 2 µg/mL
same,MIC,"E. faecium; Enterococcus faecium, read-out: minimum inhibitory concentration (MIC)",≤ 2 µg/mL
same,MIC,"E. fecalis; Enterococcus faecalis, read-out: minimum inhibitory concentration (MIC)",≤ 2 µg/mL
same,MIC,"L. casei; Lacticaseibacillus casei, ATCC334, read-out: minimum inhibitory concentration (MIC)",16 µg/mL
same,MIC,"L. brevis; Levilactobacillus brevis, ATCC14864, read-out: minimum inhibitory concentration (MIC)",8 µg/mL
same,MIC,"L. rhamanosus; Lactobacillus, ATCC53103, read-out: minimum inhibitory concentration (MIC)",16 µg/mL
same,MIC,enterococcal species,≤ 2 µg/mL
same,MIC,[2],4.7 µM
same,MIC,MRSA,8.1 µM
same,MIC,A. baumannii,8 µg/mL
same,MIC,[3],2 µg/mL
same,MIC (μM),[4],8 µM
same,MIC,"[4]; Clostridioides difficile, ATCCBAA1870, 48 h",2.97 µg/mL
Milbemycin oxime,minimum inhibitory concentration (MIC),[1]; C. difficile ATCC 630,4 µg/mL
same,minimum inhibitory concentration (MIC),[1]; C. difficile ATCC 43255,4 µg/mL
same,minimum inhibitory concentration (MIC),"[1]; C. difficile ATCC BAA-1870 (Ribotype-027), purchased compounds, panel test",8 µg/mL
same,minimum inhibitory concentration (MIC),[1]; C. difficile CD-1 (Ribotype-027),4 µg/mL
same,minimum inhibitory concentration (MIC),[1]; C. difficile CD-6 (Ribotype-027),4 µg/mL
same,minimum inhibitory concentration (MIC),[1]; C. difficile CD-10(Ribotype-027),4 µg/mL
same,minimum inhibitory concentration (MIC),[1]; C. difficile CD-12,4 µg/mL
same,minimum inhibitory concentration (MIC),[1]; C. difficile CD-13,8 µg/mL
same,minimum inhibitory concentration (MIC),[1]; C. difficile CD-15,4 µg/mL
same,minimum inhibitory concentration (MIC),[1]; C. difficile CD-22,8 µg/mL
same,minimum inhibitory concentration (MIC),[1]; C. difficile CD-23,4 µg/mL
same,minimum inhibitory concentration (MIC),[1]; C. difficile CD-24,4 µg/mL
same,minimum inhibitory concentration (MIC),[1]; C. difficile CD-26 (Ribotype-027),4 µg/mL
same,minimum inhibitory concentration (MIC),[1]; C. difficile CD-28,8 µg/mL
same,minimum inhibitory concentration (MIC),[1]; C. difficile CD-29 (Ribotype-027),4 µg/mL
same,minimum inhibitory concentration (MIC),[1]; C. difficile CD-30,4 µg/mL
same,minimum inhibitory concentration (MIC),[1]; C. difficile NR-49302,4 µg/mL
same,minimum inhibitory concentration (MIC),[1]; C. difficile NR-49304,8 µg/mL
same,minimum inhibitory concentration (MIC),[1]; C. difficile NR-49308,4 µg/mL
same,minimum inhibitory concentration (MIC),[1]; C. difficile NR-49319,8 µg/mL
same,MIC50,[1],4 µg/mL
same,MIC90,[1],8 µg/mL
same,minimum inhibitory concentration (MIC),B. fragilis; [5],32 µg/mL
same,minimum inhibitory concentration (MIC),B. fragilis; [6],>256 µg/mL
same,minimum inhibitory concentration (MIC),B. dorei,>256 µg/mL
same,minimum inhibitory concentration (MIC),Bif. breve,4 µg/mL
same,minimum inhibitory concentration (MIC),Bif. angulatum,4 µg/mL
same,minimum inhibitory concentration (MIC),Bif. adolescentis,4 µg/mL
same,minimum inhibitory concentration (MIC),Bif. longum; [7],8 µg/mL
same,minimum inhibitory concentration (MIC),Bif. longum; [8],8 µg/mL
same,minimum inhibitory concentration (MIC),Bif. longum; [9],8 µg/mL
same,minimum inhibitory concentration (MIC),Bif. longum; [10],8 µg/mL
same,minimum inhibitory concentration (MIC),E. faecium,4 µg/mL
same,minimum inhibitory concentration (MIC),E. fecalis,8 µg/mL
same,minimum inhibitory concentration (MIC),L. casei,>256 µg/mL
same,minimum inhibitory concentration (MIC),L. brevis,>256 µg/mL
same,minimum inhibitory concentration (MIC),L. rhamanosus,>256 µg/mL
same,MIC (antimycobacterial activity),mycobacteria,< 8 µg/mL
same,MIC (μM),[4],4 µM
same,MIC (μg/mL),[4],4.39 µg/mL
